Data taken from paper doi:10.1101/2024.12.09.627564, “Cannabinoid inhibition of mechanosensitive K^+ channels” (bioRxiv, 2024).
Like-named read-outs stand apart in the source and are kept apart here.

Columns and labels:
Homo sapiens TRAAK = biological target: T1, Homo sapiens TRAAK (Homo sapiens, UniProt Q9NYG8); experiment: Excised inside-out patch recording of TRAAK from Xenopus oocytes; type: biochemical
T1 construct: The transcribed messages encode H. sapiens TRAAK amino acids 1–393; expressed in transfected cells; host or cells: Xenopus laevis oocytes, cRNA injection
T1 sequence (Q9NYG8 1-393): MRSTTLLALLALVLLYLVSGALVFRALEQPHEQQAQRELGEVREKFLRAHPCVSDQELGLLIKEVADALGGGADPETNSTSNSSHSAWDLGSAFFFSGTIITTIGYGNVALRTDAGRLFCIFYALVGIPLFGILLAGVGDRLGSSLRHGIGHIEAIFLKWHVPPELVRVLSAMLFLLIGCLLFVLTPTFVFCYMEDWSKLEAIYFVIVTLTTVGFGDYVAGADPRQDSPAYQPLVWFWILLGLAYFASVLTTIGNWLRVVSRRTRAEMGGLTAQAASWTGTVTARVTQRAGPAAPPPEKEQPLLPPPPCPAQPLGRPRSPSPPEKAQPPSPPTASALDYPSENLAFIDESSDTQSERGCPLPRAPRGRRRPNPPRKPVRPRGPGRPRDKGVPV
Excerpt: For patch clamp recording from Xenopus oocytes, genes encoding full-length Homo sapiens TRAAK (UniProt Q9NYG8–2), TREK-1 (UniProt O95069), and TREK-2 (UniProt P57789) were codon optimized for eukaryotic expression, synthesized (Genewiz), and cloned into a modified pGEMHE vector using Xho1 and EcoR1 restriction sites. The transcribed messages encode H. sapiens TRAAK amino acids 1–393, TREK-1 amino acids 1–426, or TREK-2 amino acids 1–538 with an additional three amino acids (SNS) at the C terminus. TRAAK mutants were introduced by polymerase chain reaction (PCR). Linearized DNA was transcribed in vitro using T7 polymerase. Complementary RNA (0.1 to 10 ng for TRAAK, TREK-1, TREK-2, and mutants) in 50 nL H2O was injected into Xenopus laevis oocytes extracted from anesthetized frogs. Currents were recorded at 25 °C from inside-out patches excised from oocytes 1 to 5 d after RNA injection. The pipette solution contained 15 mM KCl, 135 mM NaCl, 2 mM MgCl2, and 10 mM HEPES (pH = 7.4 with KOH) and the bath solution contained 150 mM KCl and 10 mM HEPES (pH = 7.1 with KOH). Borosilicate glass pipettes were pulled to 2–5 MΩ resistance.
Patches were evaluated with voltage-step protocols to confirm TRAAK expression and minimal non-specific leak based on reversal potential. Currents were recorded using an Axopatch 200B amplifier (Molecular Devices) at a bandwidth of 1 kHz and digitized with an Digidata 1550B (Molecular Devices) at 100–500 kHz using pClamp10.7 software. Pressure was applied with a second-generation high-speed pressure clamp device (HSPC-2-SB, ALA Scientific Instruments). Aggregated data were from patches from n ≥ 2 different cells on different days. No relevant differences were observed between patches from different cells. In an effort to minimize variability associated with differences in resting membrane tension, we targeted patches with low basal curvature and low resting channel activity and ensured measured pressure difference across the patch was as close to zero as possible at rest to prevent mechanical activation of channels. Data were analyzed using Clampfit 10.7, Excel, and Graphpad Prism software. For voltage families, the data were decimated 100x and plotted in Prism. Statistical analysis was conducted with Dunnett’s multiple comparisons test after an ordinary one-way ANOVA using Prism software.
To avoid cannabinoid absorption to plastic, cannabinoid solutions were made in glass vials and diluted by weight, perfusion was performed using glass tubing pulled from borosilicate glass Pasteur pipettes (Fisherbrand, Cat# 13–678-20C), and recordings were performed in glass chambers. Channel activity was continuously recorded during perfusion steps. Patches were exposed to each cannabinoid concentration until a stable current level was reached (0.5–2 minutes). CBD (Cayman Chemical cat#90080) was prepared as a 10mM stock solution in DMSO, CBN (Cayman Chemical cat#25495) was prepared as a 80mM stock solution in DMSO, CBDV (Phytolab Cat#85955) was prepared as a 10mM stock solution in DMSO, and CBDP (Cayman Chemical cat#33611) was purchased as a 2.9 mM stock solution in methanol. Cannabinoids were serially diluted in bath solution to achieve working concentrations of 50 μM to 10 nM. Bath volume in the recording chamber was minimized by suction and drug-containing solutions were delivered three times to ensure establishment of desired concentration in the recording chamber. Cannabinoids were applied from low to high concentration. The recording chamber and perfusion system were washed extensively with methanol after every trial.
The effects of cannabinoids on channel activity were quantified by the reduction in channel current evoked at 0 mV during a gap-free recording or during 200 ms long voltage families with steps ranging from −100 to +100 mV. Currents were normalized to those prior to cannabinoid application to facilitate comparisons across different patches and cells. […]

CB2 = test system: CB2; design: method as in PMID 27398024; settings: partial agonism of CB2; cited from earlier work
CB1 = test system: CB1; design: method as in PMID 27398024; settings: partial agonism of CB1; cited from earlier work
[1] = TRAAK inhibition, relative to CBD

For C=C(C)[C@@H]1CCC(C)=C[C@H]1c1c(O)cc(CCC)cc1O [CBDV, cannabidivarin], which “inhibition of TRAAK channels at high concentration” value (Homo sapiens TRAAK; 20 μM) is on record?
Its value is “fully inhibits”.

And the “fold less potent than CBD” value (Homo sapiens TRAAK; [1])?
The value was ~ 40 fold.

And the IC50 (Homo sapiens TRAAK; wild-type TRAAK, excised patch, current at 0 mV, read-out: IC50)?
Its IC50 is 5580 ± 340 nM.

What does the source list for C=C(C)[C@@H]1CCC(C)=CC1c1c(O)cc(CCCCCCC)cc1O (stereo partly drawn) [CBDP, Cannabidiphorol]?
fold more potent than CBD (Homo sapiens TRAAK; [1]): ~ 10 fold; IC50 (Homo sapiens TRAAK; wild-type TRAAK, excised patch, current at 0 mV, all glass components, read-out: IC50): 17 ± 3 nM

What does the source list for CCCCCc1cc(O)c2c(c1)OC(C)(C)c1ccc(C)cc1-2 [CBN, Cannabinol]?
IC50 (Homo sapiens TRAAK): 107 nM; more potent than CBD (Homo sapiens TRAAK; [1]): ~ 33%
